Results taken from patent publication EP4352072B1, “SYNTHESIS OF A NOVEL GLUCOSE-CONJUGATED METHOTREXATE AND ITS APPLICATION FOR THE TREATMENT AND PREVENTION OF NEOPLASMS” (Uniwersytet Medyczny Im. Piastów Slaskich We Wroclawiu, priority 2021, dated 2022).
Like-named read-outs stand apart in the source and are kept apart here.

Legend:
MCF-7 (breast) = test: MTT cytotoxicity test, MCF-7; assay type: cell-based; details: Homo sapiens, MCF7, incubation 72 hours, read-out: IC50 values (µM) for individual cell lines MCF-7 (breast)
Description: (§1) Cells were seeded in a 96-well plate at 5-10 x 10^3 cells per well. After 24 hours, the culture medium was decanted and 100 µL of fresh medium was added to the control wells, while the medium with test compounds dissolved in DMSO was added to the test wells. The plates were wrapped in foil and placed in an incubator. After 72 hours of incubation, the medium was decanted and 100 µL of a solution of yellow soluble 3-(4,5-dimethyl-2-thiazolyl)-2,5-diphenyl-2H-tetrazolium bromide (MTT) at a concentration of 0.5-1 mg/mL was added. After 4 hours of incubation, the MTT solution was decanted and 50 µL/well of DMSO was added. After 3 hours, the optical density of the dissolved formazan was analyzed colorimetrically in a BioTek plate reader. […] Since living cells reduce MTT to formazan, the optical density (OD) is highest in the control (C) wells which accounted for 100% of cell viability. Viablity in wells incubated with compound (COMP) was calculated using the formula: X = 100% × OD COMP/OD C [formula] The results reported are the mean value of triplicate cytotoxicity analysis. Cell viability studies using the MTT assay on cell lines of numerous cancers, including breast cancer, colorectal cancer, lung cancer, skin cancer, and bone sarcoma have shown that Glu-MTX is cytotoxic in vitro. […]

DLD-1 (large intestine) = test: MTT cytotoxicity test, DLD-1; assay type: cell-based; details: Homo sapiens, incubation 72 hours, read-out: IC50 values (µM) for individual cell lines DLD-1 (large intestine)
Description: as §1

MG-63 (bone sarcoma) = test: MTT cytotoxicity test, MG-63; assay type: cell-based; details: Homo sapiens, incubation 72 hours, read-out: IC50 values (µM) for individual cell lines MG-63 (bone sarcoma)
Description: as §1

[1] = tested on: WI38 (healthy fibroblasts); test: MTT cytotoxicity test, WI38; assay type: cell-based; details: Homo sapiens, WI-38, incubation 72 hours, read-out: IC50 values (µM) for individual cell lines WI38 (healthy fibroblasts)
Description: as §1

[2] = tested on: MCF-7 breast cancer tumor cells; test: MS analysis of intracellular accumulation, MCF-7; assay type: cell-based; details: human, 2 h, 10 µM
Description: (§2) Cells were seeded in a 6-well plate at 2.5 x 10^5 cells/well and 1 mL/well. When the cells reached 80% confluence, the culture medium was decanted and 1 mL per well of fresh medium to the control wells or 1 mL per well of the test medium with methotrexate at a concentration of 10 µM or a derivative of methotrexate at a concentration of 10 µM, respectively, was added. The plate was wrapped in foil and incubated for 2 hours in an incubator. After this time, the medium was decanted, and each well was washed with 2x1 mL of PBS at room temperature. Then, the plate was placed on ice and 500 µL of a 3:1 mixture of methanol and ultrapure water at -20 °C were applied to each well. The mixture was pipetted several times in each well and collected in a test tube. Then, the procedure was repeated and the prepared samples (each with a volume of 1 mL) were placed in a lowtemperature freezer at -80 °C. The next day, the samples were concentrated in a vacuum concentrator until the samples were completely dry. Prior to analysis, the solvent for MS analysis (Xevo G2 Q-TOF MS) was added to the sample. In figure 7 it can be seen that in case of MTX the surface area of MCF7 tumor cells grown with MTX is about 308 units, and when using a compound according to the invention (identified as 77_1 in Figure 7) it is 525, i.e. about 1.7 times less than in the case of a conjugate. […]

[3] = tested on: A427 lung cancer tumor cells; test: MS analysis of intracellular accumulation, A427; assay type: cell-based; details: 10 µM, 2 hours incubation
Description: as §2

[4] = male, BALB/ccmdb, mouse, in vivo, iv
Description: The pharmacokinetic profile of the glucose-methotrexate derivative according to the invention (GMTX; chemical formula: C42H58N16O15) was examined in relation to the profile of the classical form of this drug (MTX) after a single intravenous administration into the tail vein. The solutions administered to the animals were prepared on the day of administration.
GMTX was administered to mice intravenously via the tail vein, in a single dose, in the form of solutions (with concentrations ensuring that the animals are dosed appropriately) prepared in 5% DMSO and saline in the 1:20 ratio, in a volume not exceeding 0.2 cm^3/mouse. […]
Mice were administered intravenously (i.v.) GMTX and MTX and blood was collected (to obtain plasma) at 4 time points after injection (1 h, 2 h, 4 h and 8 h), as well as in the so-called time 0 (blood sampling from animals that received neither MTX nor GMTX). […] Another 16 males were administered GMTX at a dose of 400 mg/kg body weight, constituting ½ the MTD of this compound (determined in our study with the code T425/001/2020), and the remaining 8 subjects were not administered either classic MTX nor its glycoconjugate (GMTX). […]
The results of MTX and GMTX concentrations in the plasma of mice were statistically analyzed using the Statistica 13 computer program. The results were expressed as the mean concentration (± standard deviation - SD) at individual time points. […]

[5] = administered intravenously, cited from earlier work
[6] = cited from earlier work

Question: For `CN(Cc1cnc2nc(N)nc(N)c2n1)c1ccc(C(=O)N[C@@H](CCC(=O)O)C(=O)O)cc1` [MTX, Methotrexate], which IC50 (MCF-7 (breast)) is on record?
Answer: Its IC50 is 9.61 ± 0.12 µM.

Question: And the IC50 (DLD-1 (large intestine))?
Answer: Its IC50 is 6.85 ± 0.21 µM.

Question: What about the IC50 (MG-63 (bone sarcoma)) of the same compound?
Answer: The IC50 was 61 ± 0.76 µM.

Question: What about the IC50 [1] of the same compound?
Answer: The IC50 was 16.9 ± 1.94 µM.

Question: What about the “surface area (MS analysis)” value [2] of the same compound?
Answer: Its value is “about 308 units”.

Question: What about the “surface area of MTX, times less than in the case of a conjugate” value [2] of the same compound?
Answer: Its value is “about 1.7 times”.

Question: What about the “surface area of MTX, times smaller compared to that of the conjugate” value [3] of the same compound?
Answer: Its value is 1.7 times.

Question: What about the “eliminated from the systemic circulation (time)” value [4] of the same compound?
Answer: Its value is at most 4 h.

Question: And the MTD ([5]; mice of the BALB/c strain, Moura et al. 2011)?
Answer: Its MTD is 94 mg/kg b.w.

Question: And the LD50 ([5]; mice)?
Answer: Its LD50 is 65 mg/kg b.w.

Question: And the bioavailability ([6]; in high doses)?
Answer: Its bioavailability is 10-20%.

Question: What about the bioavailability ([6]; in low doses) of the same compound?
Answer: The bioavailability was “almost complete”.

Question: And the plasma half-life ([6]; in vivo)?
Answer: Its plasma half-life is 5 to 8 h.
